Experimental data taken from US9453040B2, “Glycodendrimers of polypropyletherimine” (priority 2010, dated 2016).

Test system: pro-inflammatory cytokines such as IL-6, IL-8, IL-1 beta, TNF-alpha and MIP-1 beta
Test: Effect of unconjugated components on pro-inflammatory cytokines
Type: cell-based
Details: even at high doses

With `N[C@H]1C(O)O[C@H](CO)[C@@H](O)[C@@H]1O` (stereo partly shown) [glucosamine] the “effect on pro-inflammatory cytokines such as IL-6, IL-8, IL-1 beta, TNF-alpha and MIP-1 beta” value was “no effect”.
